From patent publication US8778919B2, “Cyclic anilino—pyridinotriazines” (Janssen Pharmaceutica NV, priority 2005, dated 2014)

How the values were obtained:
Type in all cases: biochemical
GSK-3α = GSK-3α (Homo sapiens, UniProt P49840); assay: GSK-3 kinase assay (C1), GSK-3α; conditions: 1 μM ATP; for IC50: read-out: C1 Score α
How it was run: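 Radiometric SPA at room temperature in 25 mM Tris pH 7.4 with 10 mM MgCl2, 1 mM DTT, 5.7 ng/μl GSK-3β or 0.25 ng/μl GSK-3α, 5 μM biotinylated CREB peptide and 1 μM ATP plus ^33P-ATP. Stopped after 1 h; IC50 from dose-response versus no-compound control, reported as pIC50 score bands.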

CDK7/cyclinH/MAT1 (h) = CDK7/cyclinH/MAT1 (h) (Homo sapiens, UniProt P50613); assay: Kinase profiling C3.8 CDK7/cyclinH/MAT1 human; conditions: CDK7/cyclinH/MAT1, test concentration of 10^−6 M
How it was run: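 Human CDK7/cyclinH/MAT1 (5-10 mU) incubated 40 min at room temperature in 8 mM MOPS pH 7.0, 0.2 mM EDTA, 10 mM Mg acetate, 500 μM peptide substrate and [γ-^33P]ATP. Stopped with phosphoric acid; substrate phosphorylation measured by filter binding and scintillation counting.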

CDK2/cyclinE (h) = CDK2/cyclinE (h) (Homo sapiens, UniProt P24941); assay: Kinase profiling C3.4 CDK2/cyclinE human; conditions: test concentration of 10^−6 M
How it was run: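 Radiometric filter-binding assay: 5-10 mU enzyme with 0.1 mg/ml histone H1 in 8 mM MOPS pH 7.0, 0.2 mM EDTA, 10 mM Mg acetate and [γ-33P]ATP. Incubated 40 min at room temperature, stopped with phosphoric acid. Substrate-bound 33P counted on P30 filtermat.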

CDK5/p35 human = CDK5/p35 human (Homo sapiens, UniProt Q00535); assay: Kinase profiling C3.6 CDK5/p35 human; conditions: CDK5/p35, test concentration of 10^−6 M
How it was run: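 Radiometric filter-binding assay: human CDK5/p35 (5-10 mU) with 0.1 mg/ml histone H1 substrate in 8 mM MOPS pH 7.0, 0.2 mM EDTA, 10 mM Mg acetate and [γ-33P]ATP. Incubated 40 min at room temperature, stopped with phosphoric acid. Substrate 33P incorporation counted on P30 filtermat by scintillation.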

CDK3/cyclinE (h) = CDK3/cyclinE (h) (Homo sapiens, UniProt Q00526); assay: Kinase profiling C3.5 CDK3/cyclinE human; conditions: test concentration of 10^−6 M
How it was run: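 Human CDK3/cyclinE (5-10 mU) phosphorylated 0.1 mg/ml histone H1 in 8 mM MOPS pH 7.0, 0.2 mM EDTA and 10 mM MgAcetate with [γ-33P]ATP. Reaction ran 40 min at room temperature and was stopped with phosphoric acid. Substrate-bound radioactivity was captured on P30 filtermat and measured by scintillation counting.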

CDK2/cyclinA (h) = CDK2/cyclinA (h) (Homo sapiens, UniProt P24941); assay: Kinase profiling C3.3 CDK2/cyclinA human; conditions: test concentration of 10^−6 M
How it was run: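 Human CDK2/cyclinA (5-10 mU) phosphorylates 0.1 mg/ml histone H1 in 8 mM MOPS pH 7.0, EDTA, 10 mM Mg acetate with [γ-33P]ATP, 40 min at room temperature. After phosphoric acid stop, filter-bound 33P counted by scintillation.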

Sequence of CDK7/cyclinH/MAT1 (h) (P50613 whole entry): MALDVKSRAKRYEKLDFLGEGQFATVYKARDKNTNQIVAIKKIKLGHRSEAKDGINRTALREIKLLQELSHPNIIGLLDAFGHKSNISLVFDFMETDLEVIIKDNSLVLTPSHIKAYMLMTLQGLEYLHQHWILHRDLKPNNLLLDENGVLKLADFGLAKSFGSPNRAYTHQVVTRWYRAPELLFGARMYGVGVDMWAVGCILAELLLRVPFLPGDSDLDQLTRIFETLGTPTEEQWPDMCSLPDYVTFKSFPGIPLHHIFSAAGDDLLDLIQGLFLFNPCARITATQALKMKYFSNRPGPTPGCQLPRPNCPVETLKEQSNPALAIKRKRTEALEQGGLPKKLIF
Sequence of CDK7/cyclinH/MAT1 (h) (P51946 whole entry partner): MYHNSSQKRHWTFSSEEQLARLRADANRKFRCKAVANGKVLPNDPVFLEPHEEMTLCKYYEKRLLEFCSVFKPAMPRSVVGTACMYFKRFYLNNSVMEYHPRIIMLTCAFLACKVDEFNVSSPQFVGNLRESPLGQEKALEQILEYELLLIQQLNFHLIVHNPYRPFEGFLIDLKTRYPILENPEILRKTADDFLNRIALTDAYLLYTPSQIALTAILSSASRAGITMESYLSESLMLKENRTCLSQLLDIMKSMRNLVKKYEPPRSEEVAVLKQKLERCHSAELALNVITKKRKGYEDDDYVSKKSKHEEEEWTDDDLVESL
Sequence of CDK7/cyclinH/MAT1 (h) (P51948 whole entry partner): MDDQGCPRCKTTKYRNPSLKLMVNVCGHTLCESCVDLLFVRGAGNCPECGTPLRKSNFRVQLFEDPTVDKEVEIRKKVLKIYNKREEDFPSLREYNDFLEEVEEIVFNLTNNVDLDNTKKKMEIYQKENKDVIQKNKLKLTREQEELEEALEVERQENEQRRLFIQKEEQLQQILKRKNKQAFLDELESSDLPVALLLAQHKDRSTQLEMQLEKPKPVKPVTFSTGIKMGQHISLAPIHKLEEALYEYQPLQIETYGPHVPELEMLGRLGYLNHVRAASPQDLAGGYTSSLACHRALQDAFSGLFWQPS
Sequence of CDK5/p35 human (Q00535 whole entry): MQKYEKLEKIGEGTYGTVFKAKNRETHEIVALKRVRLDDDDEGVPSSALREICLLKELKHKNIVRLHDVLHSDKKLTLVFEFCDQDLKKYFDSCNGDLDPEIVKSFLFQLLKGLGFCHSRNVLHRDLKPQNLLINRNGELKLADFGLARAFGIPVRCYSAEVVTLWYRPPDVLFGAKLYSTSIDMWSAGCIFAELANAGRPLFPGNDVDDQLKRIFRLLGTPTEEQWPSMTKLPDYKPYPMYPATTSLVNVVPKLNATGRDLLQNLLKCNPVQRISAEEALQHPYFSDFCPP
Sequence of CDK5/p35 human (Q15078 whole entry partner): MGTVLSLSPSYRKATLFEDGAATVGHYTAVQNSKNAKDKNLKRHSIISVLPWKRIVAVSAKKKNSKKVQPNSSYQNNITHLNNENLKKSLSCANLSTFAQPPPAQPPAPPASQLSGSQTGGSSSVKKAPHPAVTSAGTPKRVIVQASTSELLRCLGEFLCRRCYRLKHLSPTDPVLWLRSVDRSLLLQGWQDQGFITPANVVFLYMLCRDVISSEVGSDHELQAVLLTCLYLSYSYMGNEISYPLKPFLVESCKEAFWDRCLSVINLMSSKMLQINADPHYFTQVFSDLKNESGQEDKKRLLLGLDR
Sequence of GSK-3α (P49840 whole entry, species assumed): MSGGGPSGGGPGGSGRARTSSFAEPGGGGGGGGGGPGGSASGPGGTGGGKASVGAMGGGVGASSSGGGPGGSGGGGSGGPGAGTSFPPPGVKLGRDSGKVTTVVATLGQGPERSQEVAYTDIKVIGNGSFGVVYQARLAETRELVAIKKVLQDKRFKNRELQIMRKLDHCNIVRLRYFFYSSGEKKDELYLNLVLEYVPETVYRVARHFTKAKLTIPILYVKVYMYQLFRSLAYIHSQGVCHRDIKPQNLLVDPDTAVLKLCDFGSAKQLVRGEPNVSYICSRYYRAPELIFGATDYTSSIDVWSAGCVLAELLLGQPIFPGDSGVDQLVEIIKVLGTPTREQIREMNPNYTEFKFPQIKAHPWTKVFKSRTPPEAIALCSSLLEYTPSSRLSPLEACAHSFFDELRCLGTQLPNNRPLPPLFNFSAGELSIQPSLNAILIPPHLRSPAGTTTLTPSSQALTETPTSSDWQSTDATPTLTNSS

| SMILES | IC50 (GSK-3α) [µM] | C3.8 score (CDK7/cyclinH/MAT1 (h)) | C3.4 score (CDK2/cyclinE (h)) | C3.6 score (CDK5/p35 human) | C3.5 score (CDK3/cyclinE (h)) | C3.3 score (CDK2/cyclinA (h)) | C1 Score α (GSK-3α) |
| --- | --- | --- | --- | --- | --- | --- | --- |
| CN1CC(=O)NCC#Cc2cc(ccn2)-c2ncnc(n2)Nc2cccc(c2)C1 [Compound 1] | < 0.01 | 4 (Score 4 = >80% inhibition) | 4 (Score 4 = >80% inhibition) | 4 (Score 4 = >80% inhibition) | 4 (Score 4 = >80% inhibition) | 4 (Score 4 = >80% inhibition) |  |
| CN1CC(=O)NC/C(Cl)=C/c2cc(ccn2)-c2ncnc(n2)Nc2cccc(c2)C1 [Compound 2] | < 0.01 | 3 (Score 3 = 60-80% inhibition) | 4 (Score 4 = >80% inhibition) | 4 (Score 4 = >80% inhibition) | 4 (Score 4 = >80% inhibition) | 4 (Score 4 = >80% inhibition) |  |
| CN1CCC(=O)NCCCc2cc(ccn2)-c2ncnc(n2)Nc2cccc(c2)C1 [Compound 3] | 0.1 to 1 | 4 (Score 4 = >80% inhibition) | 4 (Score 4 = >80% inhibition) | 3 (Score 3 = 60-80% inhibition) | 3 (Score 3 = 60-80% inhibition) | 4 (Score 4 = >80% inhibition) |  |
| CN1CCCc2cc(ccn2)-c2ncnc(n2)Nc2cccc(c2)CNC(=O)C1 [Compound 7] | < 0.01 | 2 (Score 2 = 30-60% inhibition) | 4 (Score 4 = >80% inhibition) | 4 (Score 4 = >80% inhibition) | 4 (Score 4 = >80% inhibition) | 4 (Score 4 = >80% inhibition) |  |
| CN1CC(=O)NCCCc2cc(ccn2)-c2ncnc(n2)Nc2cccc(c2)C1 [Compound 8] |  | 2 (Score 2 = 30-60% inhibition) | 4 (Score 4 = >80% inhibition) | 3 (Score 3 = 60-80% inhibition) | 4 (Score 4 = >80% inhibition) | 4 (Score 4 = >80% inhibition) | 4 (Score 4=pIC50 value>8) |
| O=C1CN2CCN(CC2)Cc2cccc(c2)Nc2ncnc(n2)-c2ccnc(c2)CCCN1 [Compound 9] |  | 2 (Score 2 = 30-60% inhibition) | 4 (Score 4 = >80% inhibition) | 2 (Score 2 = 30-60% inhibition) | 3 (Score 3 = 60-80% inhibition) | 4 (Score 4 = >80% inhibition) | 4 (Score 4=pIC50 value>8) |
| CN1CC(=O)NCCCc2cc(ccn2)-c2ncnc(n2)Nc2cccc(c2)C1 [Compound 10] | < 0.01 | 4 (Score 4 = >80% inhibition) | 4 (Score 4 = >80% inhibition) | 4 (Score 4 = >80% inhibition) | 4 (Score 4 = >80% inhibition) | 4 (Score 4 = >80% inhibition) |  |
| CN1CCN(CCN2CCC(=O)NCCCc3cc(ccn3)-c3ncnc(n3)Nc3cccc(c3)C2)CC1 [Compound 11] | 0.1 to 1 | 1 (Score 1 = 10-30% inhibition) | 1 (Score 1 = 10-30% inhibition) | 1 (Score 1 = 10-30% inhibition) | 1 (Score 1 = 10-30% inhibition) | 1 (Score 1 = 10-30% inhibition) |  |
| O=C1NCCCc2cc(ccn2)-c2ncnc(n2)Nc2cccc(c2)CN2CCCC12 (stereo not drawn) [Compound 12] | 0.1 to 1 | 3 (Score 3 = 60-80% inhibition) | 4 (Score 4 = >80% inhibition) | 2 (Score 2 = 30-60% inhibition) | 3 (Score 3 = 60-80% inhibition) | 4 (Score 4 = >80% inhibition) |  |
| CN1CCCC(=O)NCCCc2cc(ccn2)-c2ncnc(n2)Nc2cccc(c2)C1 [Compound 13] | 0.1 to 1 | 2 (Score 2 = 30-60% inhibition) | 2 (Score 2 = 30-60% inhibition) | 1 (Score 1 = 10-30% inhibition) | 2 (Score 2 = 30-60% inhibition) | 2 (Score 2 = 30-60% inhibition) |  |
| O=C1NCCCc2cc(ccn2)-c2ncnc(n2)Nc2cccc(c2)CN2C[C@H](O)C[C@@H]12 [Compound 14] | 0.01 to 0.1 | 2 (Score 2 = 30-60% inhibition) | 1 (Score 1 = 10-30% inhibition) | 1 (Score 1 = 10-30% inhibition) | 2 (Score 2 = 30-60% inhibition) | 4 (Score 4 = >80% inhibition) |  |
| O=C1NCCCc2cc(ccn2)-c2ncnc(n2)Nc2cccc(c2)CN2CCCC1C2 (stereo not drawn) [Compound 15] | 0.01 to 0.1 | 2 (Score 2 = 30-60% inhibition) | 2 (Score 2 = 30-60% inhibition) | 1 (Score 1 = 10-30% inhibition) | 1 (Score 1 = 10-30% inhibition) | 2 (Score 2 = 30-60% inhibition) |  |
| CCN1CCCc2cc(ccn2)-c2ncnc(n2)Nc2cccc(c2)CCNC(=O)C1 [Compound 30] | < 0.01 | 3 (Score 3 = 60-80% inhibition) | 4 (Score 4 = >80% inhibition) | 4 (Score 4 = >80% inhibition) | 4 (Score 4 = >80% inhibition) | 4 (Score 4 = >80% inhibition) |  |
| CN1CC(=O)NCCCc2cc(ccn2)-c2ncnc(n2)Nc2cc(Cl)cc(c2)C1 [Compound 33] | < 0.01 | 3 (Score 3 = 60-80% inhibition) | 4 (Score 4 = >80% inhibition) | 4 (Score 4 = >80% inhibition) | 4 (Score 4 = >80% inhibition) | 4 (Score 4 = >80% inhibition) |  |
| CCN1CC(=O)NCCCc2cc(ccn2)-c2ncnc(n2)Nc2cc(Cl)cc(c2)C1 [Compound 34] | < 0.01 | 2 (Score 2 = 30-60% inhibition) | 4 (Score 4 = >80% inhibition) | 4 (Score 4 = >80% inhibition) | 4 (Score 4 = >80% inhibition) | 4 (Score 4 = >80% inhibition) |  |
| O=C1CCN2CCN(CC2)Cc2cccc(c2)Nc2ncnc(n2)-c2ccnc(c2)CCCN1 [Compound 35] | 0.01 to 0.1 | 4 (Score 4 = >80% inhibition) | 4 (Score 4 = >80% inhibition) | 4 (Score 4 = >80% inhibition) | 4 (Score 4 = >80% inhibition) | 4 (Score 4 = >80% inhibition) |  |
| O=C1CN2CCN(CC2)Cc2cccc(c2)Nc2ncnc(n2)-c2ccnc(c2)CCCN1 [Compound 36] | < 0.01 | 2 (Score 2 = 30-60% inhibition) | 4 (Score 4 = >80% inhibition) | 3 (Score 3 = 60-80% inhibition) | 3 (Score 3 = 60-80% inhibition) | 4 (Score 4 = >80% inhibition) |  |
| O=C1CN2CCN(CC2)Cc2cc(Cl)cc(c2)Nc2ncnc(n2)-c2ccnc(c2)CCCN1 [Compound 41] | < 0.01 | 2 (Score 2 = 30-60% inhibition) | 4 (Score 4 = >80% inhibition) | 3 (Score 3 = 60-80% inhibition) | 3 (Score 3 = 60-80% inhibition) | 4 (Score 4 = >80% inhibition) |  |
| O=C1NCCCc2cccc(c2)-c2ncnc(n2)Nc2cccc(c2)CN[C@H]1CO [Compound 46] | < 0.01 | 1 (Score 1 = 10-30% inhibition) | 4 (Score 4 = >80% inhibition) | 4 (Score 4 = >80% inhibition) | 4 (Score 4 = >80% inhibition) | 4 (Score 4 = >80% inhibition) |  |
| CCN1CC(=O)NCCCc2cccc(c2)-c2ncnc(n2)Nc2cccc(c2)C1 [Compound 54] | < 0.01 | 1 (Score 1 = 10-30% inhibition) | 4 (Score 4 = >80% inhibition) | 3 (Score 3 = 60-80% inhibition) | 2 (Score 2 = 30-60% inhibition) | 4 (Score 4 = >80% inhibition) |  |
| O=C1CN2CCN(CC2)Cc2cccc(c2)Nc2ncnc(n2)-c2ccc(F)c(c2)CCCN1 [Compound 66] | < 0.01 | 1 (Score 1 = 10-30% inhibition) | 4 (Score 4 = >80% inhibition) | 3 (Score 3 = 60-80% inhibition) | 3 (Score 3 = 60-80% inhibition) | 3 (Score 3 = 60-80% inhibition) |  |
